In patent US4520101A (priority 1983, dated 1985):
“And” between values parts separate entries of the source, which are not always exact repeats. Equal values may be shown once.

Test system: Cephalosporium acremonium (a high ceph C-producing mutant strain which also produces desacetyl ceph C)
Assay type: cell-based

CCOP(=O)(OCC)C(C)=O [diethyl acetyl phosphonate]
Ceph C: 9285 µg/g and 9665 µg/g | Des C/Total Ceph Nucleus (Ceph C + Des Ceph C): 4.52% and 4.40% | Des Ceph C: 440 µg/g and 445 µg/g
